Measured values reported in paper PMC11206245 (Pharmaceuticals, 2024).
Where two headings read alike, the source gives them in different places.

Columns and labels:
[1] = Study B: 17-AAG pharmacokinetics in subcutaneous interstitial fluid (tissue cages, HPLC); assay type: in vivo; conditions: dogs; for AUC(0-t) / Cmax / half-life: both sexes, dog, subcutaneous interstitial fluid, iv, mean ± SD; for half-life: read-out: t ½ (converted)
Experimental: (§1) Study B involved 9 healthy dogs (8 females and 1 male), including the 4 females from Study A after wash-out and upon confirmation of regular laboratory evaluations. […] Tolerability evaluations were performed via clinical examinations and blood sampling for laboratory evaluation after each treatment. For toxicity assessments, 4, 6, and 8 h after the final administration, the animals were euthanized for tissue collection and histopathological evaluation.
In Study B, samples of interstitial fluid were collected from tissue cages implanted subcutaneously in the dogs. These cages were prepared based on a protocol previously described by Stegemann et al.. They were made from non-toxic, siliconized, flexible, non-irritant PVC tubes with dimensions of 3.5 cm long, an internal diameter of 3 mm, and an external diameter of 5 mm. Three autoclaved cages were surgically implanted between the scapula of each animal under sedation (xylazine 2%, Syntec, Tambore, SP, Brazil) and local anesthesia (lidocaine 2% and epinephrine 0.002%, Syntec). Before and after surgical procedures, antibiotics (enrofloxacin–5 mg/Kg, Syntec) and an anti-inflammatory (ketoprofen 1%–1 mL/Kg, CEVA, Paulínia, SP, Brazil) drug were administered. To allow animals to heal, as well as the formation of the granulation tissue around the cages, a recovery time of 10 days after surgery was considered. The subcutaneous interstitial fluid was collected by percutaneous puncture using a 21 G needle and 20 mL syringe.
For the mobile phase, acetonitrile (ACN, J.T.Baker®, Philadelphia, PA, USA) and water with 1% acetic acid (J.T.Baker®)were used. Briefly, aliquots of 200 µL of plasma or 100 µL of subcutaneous interstitial liquid were placed in a 1.5 mL microcentrifuge tube. Subsequently, 600 µL and 300 µL of ACN were added to all plasma and subcutaneous interstitial liquid samples, respectively. The mixture was vortexed for 30 s, followed by centrifugation at 3400× g for 10 min. Next, 500 µL of the plasma supernatant and 250 µL of the subcutaneous interstitial fluid were pipetted into a new vial. The method was validated in accordance with the International Council for Harmonization (ICH) technical requirements for the evaluation of medicinal products. […] No matrix interferences were observed. Two calibrated plasma curves of 17-AAG were validated with different injection volumes. […] Data acquisition and processing were performed using LabSolutions software (Version 5.3).
Cmax, half-life (t ½), distribution volume, and clearance were also determined. Data were analyzed in Excel and WinNonlin using a mono-compartmental model.

healthy dogs [2] = assay: Study B: histopathology of tissues after treatment; assay type: in vivo; conditions: nine dogs, three IV doses of 150 mg/m^2
Experimental: as §1
Hemograms were performed following blood collection.

healthy dogs [3] = assay: Study A dose-escalation protocol: tolerability, side and adverse effects; conditions: for Animals with increases in AST in plasma: reversible
Text: Control animals were the same dogs that, prior to treatment, received an intravenous injection of the placebo solution. After that, samples were collected for hematological and biochemical analyses, as described in Section 4.2, “Animal Selection and Care Procedures”.
Blood samples were collected for hematological (hemogram) and biochemical analyses, as described in Section 4.2, “Animal Selection and Care Procedures”. This study utilized a 6-step dose-escalation design for the treated dogs. […] Wash-out periods, ranging from 7 to 10 days, were observed between each dosage step. […] Blood samples were collected at various times, as specified in Section 4.4.1, “Peripheral Blood Sample Collection”. […] Peripheral blood samples for hematological and biochemical analyses were collected on days 2, 4, 7, and 10 [105].
Two separate clinical reports were used to document data obtained from clinical evaluations. A general clinical description was used to note the following information daily: whether the animal was alert, prostrate, depressed, apathetic or aggressive, drinking water, and eating food normally, as well as feces and urine evaluations and the presence of vomit. Every two days, we noted the following parameters: body temperature (°C, measured using a rectal thermometer), heart rate (beats/minute), respiratory rate (cycles/minute), external mucous membrane coloration (conjunctiva and oral), hydration (skin elasticity), superficial lymph node enlargement (submandibular and popliteal), stool consistency, presence of lesions or secretions in the eyes, presence of nasal secretion (quantity and type), coat status, presence of skin lesions and ectoparasites, temperament, presence of claudication, and coordination and balance. Hemograms were performed following blood collection. The following biochemical analyses were performed: total proteins, albumin (A), globulins (Gs), A/G ratio, total cholesterol, bilirubin, renal profile (urea and creatinine), and hepatic enzymatic profiles (ALP, ALT, AST, AF, and GGT).

[4] = Study A, healthy dogs n = 4, single IV dose 50 mg/m^2
[5] = Study A, healthy dogs n = 4, single IV dose 100 mg/m^2
[6] = Study A, healthy dogs n = 4, single IV dose 150 mg/m^2
[7] = Study A, healthy dogs n = 4, single IV dose 200 mg/m^2
[8] = Study A, healthy dogs n = 4, single IV dose 250 mg/m^2

For `C=CCNC1=C2C[C@@H](C)C[C@H](OC)[C@H](O)[C@@H](C)/C=C(\C)[C@H](OC(N)=O)[C@@H](OC)/C=C\C=C(/C)C(=O)NC(=CC1=O)C2=O` [17-AAG, 17-(allylamino)-17-demethoxygeldanamycin], the “Concentration in subcutaneous interstitial fluid (tissue cages)” value ([1]; Study B, 150 mg/m^2 IV, at all times evaluated / at 48 h intervals) was about 0.1 µg/mL, the AUC(0-t) ([1]; 150 mg/m2, AUC 0–8 h, Study B, 1st administration of 150 mg/m^2 IV) was 2.66 ± 0.437 µg·h/mL and the AUC(0-t) ([1]; 150 mg/m2, AUC 0–8 h, Study B, 2nd administration of 150 mg/m^2 IV) was 2.91 ± 0.686 µg·h/mL. It also gave an AUC(0-t) ([1]; 150 mg/m2, AUC 0–8 h, Study B, 3rd administration of 150 mg/m^2 IV) of 2.73 ± 1.44 µg·h/mL, a Cmax ([1]; 150 mg/m2, Study B, 1st administration of 150 mg/m^2 IV) of 0.704 ± 0.332 µg/mL and a Cmax ([1]; 150 mg/m2, Study B, 2nd administration of 150 mg/m^2 IV) of 0.736 ± 0.294 µg/mL. For the same compound, the Cmax ([1]; 150 mg/m2, Study B, 3rd administration of 150 mg/m^2 IV) was 0.726 ± 0.401 µg/mL, the AUC(0-t) ([1]; 150 mg/m2, Study B, 1st administration of 150 mg/m^2 IV, read-out: AUC 0–4 h) was 1.82 ± 0.43 µg·h/mL and the AUC(0-t) ([1]; 150 mg/m2, Study B, 1st administration of 150 mg/m^2 IV, read-out: AUC 0–6 h) was 2.3 ± 0.409 µg·h/mL. The AUC(0-t) ([1]; 150 mg/m2, Study B, 1st administration of 150 mg/m^2 IV, read-out: AUC 0–24 h) was 4.76 ± 0.333 µg·h/mL, the AUC(0-t) ([1]; 150 mg/m2, Study B, 1st administration of 150 mg/m^2 IV, read-out: AUC 0–47.5 h) was 7.38 ± 1.36 µg·h/mL and the half-life ([1]; 150 mg/m2, Study B, 1st of three IV administrations of 150 mg/m^2 at 48 h intervals) was 38 ± 16 h. The AUC(0-t) ([1]; 150 mg/m2, Study B, 2nd administration of 150 mg/m^2 IV, read-out: AUC 0–4 h) was 1.94 ± 0.618 µg·h/mL, the AUC(0-t) ([1]; 150 mg/m2, Study B, 2nd administration of 150 mg/m^2 IV, read-out: AUC 0–6 h) was 2.55 ± 0.638 µg·h/mL and the AUC(0-t) ([1]; 150 mg/m2, Study B, 2nd administration of 150 mg/m^2 IV, read-out: AUC 0–24 h) was 4.07 ± 0.7 µg·h/mL. The AUC(0-t) ([1]; 150 mg/m2, Study B, 2nd administration of 150 mg/m^2 IV, read-out: AUC 0–47.5 h) was 7.05 ± 2.19 µg·h/mL, the half-life ([1]; 150 mg/m2, Study B, 2nd of three IV administrations of 150 mg/m^2 at 48 h intervals) was 28 ± 9 h and the AUC(0-t) ([1]; 150 mg/m2, Study B, 3rd administration of 150 mg/m^2 IV, read-out: AUC 0–4 h) was 0.895 ± 0.408 µg·h/mL. The AUC(0-t) ([1]; 150 mg/m2, Study B, 3rd administration of 150 mg/m^2 IV, read-out: AUC 0–6 h) was 2.04 ± 1.1 µg·h/mL, the AUC(0-t) ([1]; 150 mg/m2, Study B, 3rd administration of 150 mg/m^2 IV, read-out: AUC 0–24 h) was 3.5 ± 2.42 µg·h/mL and the “Histopathological alterations in the lung and heart” value (healthy dogs [2]) was “no histopathological alterations”. For the same compound, the “Dogs with bloody diarrhea” value (healthy dogs [3]; Study A, 200 mg/m^2) was 75%, the “Dogs with bloody diarrhea” value (healthy dogs [3]; Study A, 250 mg/m^2) was 100% and the “Animals presenting nausea during administration” value (healthy dogs [3]; Study A, dogs, 200 mg/m^2) was “all four animals”. The “Animals presenting nausea during administration” value (healthy dogs [3]; Study A, dogs, 250 mg/m^2) was “all four animals”, the “Animals with ALT alteration” value (healthy dogs [3]; [4]) was 1 (25%) N (%) and the “Animals with AST alteration” value (healthy dogs [3]; [4]) was 0 N (%). The “Animals with bloody diarrhea” value (healthy dogs [3]; [4]) was 0 N (%), the “Animals with diarrhea (pasty feces)” value (healthy dogs [3]; [4]) was 0 N (%) and the Animals with erythema (healthy dogs [3]; [4]) was 0 N (%). The Animals with hyperthermia (healthy dogs [3]; [4]) was 0 N (%), the Animals with nausea (healthy dogs [3]; [4]) was 0 N (%) and the Animals with pruritus (healthy dogs [3]; [4]) was 0 N (%). The Animals with vomit (healthy dogs [3]; [4]) was 0 N (%), the “Animals with ALT alteration” value (healthy dogs [3]; [5]) was 2 (50%) N (%) and the “Animals with AST alteration” value (healthy dogs [3]; [5]) was 2 (50%) N (%). The “Animals with bloody diarrhea” value (healthy dogs [3]; [5]) was 0 N (%), the “Animals with diarrhea (pasty feces)” value (healthy dogs [3]; [5]) was 1 (25%) N (%) and the Animals with erythema (healthy dogs [3]; [5]) was 0 N (%). For the same compound, the Animals with hyperthermia (healthy dogs [3]; [5]) was 0 N (%), the Animals with nausea (healthy dogs [3]; [5]) was 0 N (%) and the Animals with pruritus (healthy dogs [3]; [5]) was 0 N (%). For the same compound, the Animals with vomit (healthy dogs [3]; [5]) was 0 N (%), the “Animals with ALT alteration” value (healthy dogs [3]; [6]) was 3 (75%) N (%) and the “Animals with AST alteration” value (healthy dogs [3]; [6]) was 2 (50%) N (%). For the same compound, the “Animals with bloody diarrhea” value (healthy dogs [3]; [6]) was 0 N (%), the “Animals with diarrhea (pasty feces)” value (healthy dogs [3]; [6]) was 1 (25%) N (%) and the Animals with erythema (healthy dogs [3]; [6]) was 1 (25%) N (%). For the same compound, the Animals with hyperthermia (healthy dogs [3]; [6]) was 1 (25%) N (%), the Animals with nausea (healthy dogs [3]; [6]) was 0 N (%) and the Animals with pruritus (healthy dogs [3]; [6]) was 1 (25%) N (%). For the same compound, the Animals with vomit (healthy dogs [3]; [6]) was 0 N (%), the “Animals with ALT alteration” value (healthy dogs [3]; [7]) was 3 (75%) N (%) and the “Animals with AST alteration” value (healthy dogs [3]; [7]) was 4 (100%) N (%). The “Animals with bloody diarrhea” value (healthy dogs [3]; [7]) was 3 (75%) N (%), the “Animals with diarrhea (pasty feces)” value (healthy dogs [3]; [7]) was 1 (25%) N (%) and the Animals with erythema (healthy dogs [3]; [7]) was 2 (50%) N (%). The Animals with hyperthermia (healthy dogs [3]; [7]) was 0 N (%), the Animals with nausea (healthy dogs [3]; [7]) was 4 (100%) N (%) and the Animals with pruritus (healthy dogs [3]; [7]) was 3 (75%) N (%). The Animals with vomit (healthy dogs [3]; [7]) was 1 (25%) N (%), the “Animals with ALT alteration” value (healthy dogs [3]; [8]) was 4 (100%) N (%) and the “Animals with AST alteration” value (healthy dogs [3]; [8]) was 4 (100%) N (%). The “Animals with bloody diarrhea” value (healthy dogs [3]; [8]) was 4 (100%) N (%), the “Animals with diarrhea (pasty feces)” value (healthy dogs [3]; [8]) was 1 (25%) N (%) and the Animals with erythema (healthy dogs [3]; [8]) was 4 (100%) N (%). For the same compound, the Animals with hyperthermia (healthy dogs [3]; [8]) was 1 (25%) N (%), the Animals with nausea (healthy dogs [3]; [8]) was 4 (100%) N (%) and the Animals with pruritus (healthy dogs [3]; [8]) was 4 (100%) N (%). For the same compound, the Animals with vomit (healthy dogs [3]; [8]) was 1 (25%) N (%), the “Animals with increases in AST in plasma” value (healthy dogs [3]; dogs, 100 mg/m^2) was 50% and the “Animals with increases in AST in plasma” value (healthy dogs [3]; dogs, 150 mg/m^2) was 50%. For the same compound, the “Animals with increases in AST in plasma” value (healthy dogs [3]; dogs, 200 mg/m^2) was 100%, the “Animals with increases in AST in plasma” value (healthy dogs [3]; dogs, 250 mg/m^2) was 100% and the maximum tolerable dose (healthy dogs [3]; dogs, Study A, IV) was 150 mg/m^2.
